Data published in patent publication US12582652B2, “3-(ethoxydifluoromethyl)-6-(5-fluoro-6-(2,2,2-trifluoroethoxy)pyridin-3-yl)-[1,2,4]triazolo[4,3-a]pyrazine as an ion channel modulator” (Praxis Precision Medicines, Inc., priority 2022, dated 2026).
Entries after “also recorded” stand apart in the source; their conditions may differ.

What was measured:
human NaV1.6 [1] = target: T1, human NaV1.6 (Homo sapiens, UniProt Q9UQD0); experiment: ATX-II activated late (persistent) INa block, PatchXpress patch clamp; format: cell-based
T1 construct: stably expressing either human NaV1.6 (NP_055006); expressed in transfected cells
Description: (§1) HEK-293 cell lines stably expressing either human NaV1.6 (NP_055006), mouse NaV1.6 (NP_035453.2), or rat NaV1.6 (NP_062139) were used. All cells were seeded at 2×10^6 cells per Nunc T75 flask for 2 days in culture. At time of harvest for assays, the cell counts were approximately 6×10^6 cells. Cells were washed (1×) in DPBS (Hyclone, Cat #SH30028.03) for approximately 30 seconds. 1 mL of 1×0.05% Trypsin-EDTA (GIBCO Cat #25300-054) was added and swirled around to cover the bottom of the flask and was allowed to sit on the cells for approximately 4 minutes (±90% of the cells were lifted by light tapping of the flask). 10 mL of warmed media (DMEM high glucose media Hyclone, SH30022.02 supplemented with 10% Fetal Bovine Serum, 2 mM Sodium Pyruvate, 10 mM HEPES and 400 μg/mL G418) was added to inactivate the trypsin. Cells were triturated until a single cell suspension was achieved. A cell count was performed and cells were aliquoted into a 250 ml centrifuge tube at a concentration of 2×10^5/mL in +30 ml of prewarmed media. The 250 mL centrifuge tube was placed on a rocker in an incubator set at 28° C. and gently rocked for approximately 1 hour to allow cells to recover. Cell aliquots of 5 mL (1×10^6 cells) were placed in a 15 mL centrifuge tube and spun at 100×g for 2 minutes. Supernatant was removed leaving a cell pellet. 100 μL of external recording solution was added to the pellet and triturated 20 times to achieve a single cell suspension and then transferred to a 1.5 mL tube for placement in the PatchXpress® (Molecular Devices).
(§2) Compound 1 was provided as powder and prepared as 10 mM DMSO stocks in 1 dram glass vials prior to assay. Immediately prior to assay, Compound 1 was diluted with DMSO to 300×, the designated final assay concentration. Assay dilutions (1× concentration) were prepared by pipetting 3 μL of diluted Compound 1 into 897 μL of extracellular solution in a 1 mL glass shell vial. Vials were capped and vortexed until initiation of the PatchXpress® (Molecular Devices) recording protocol.
(§3) The same intracellular recording solution was used for the persistent and peak INa assays, which contained: 135 mM CsF, 10 mM CsCl, 5 mM NaCl, 10 mM HEPES, 5 mM EGTA at a pH of 7.4 (adjusted with CsOH) and a measured osmolarity of 298 mOsm (adjusted with mannitol). For the persistent INa assay, the external recording solution contained: 135 mM NaCl, 5.4 mM KCl, 5 mM glucose, 2 mM CaCl2), 1 mM MgCl2, 10 mM HEPES, and 200 nM ATX-II (sea anemone toxin, Alomone Labs; Jerusalem, Israel) at a pH of 7.4 (adjusted with NaOH) and a measured osmolarity of 300 mOsm (adjusted with mannitol). For the peak INa assays, the external recording solution contained: 100 mM NaCl, 35 mM NMDG, 5.4 mM KCl, 5 mM glucose, 2 mM CaCl2), 1 mM MgCl2, and 10 mM HEPES at a pH of 7.4 (adjusted with NaOH) and a measured osmolarity of 300 mOsm (adjusted with mannitol).
(§4) All studies were performed using the PatchXpress® (Molecular Devices) automated patch clamp platform (Molecular Devices) using the whole cell configuration. Recordings were performed at room temperature. Data were collected using Patch Commander software (Molecular Devices) and processed using DataXpress 2.0 (Molecular Devices). Cell acceptance criteria were continuously monitored by custom scripts during the recording. Acceptance criteria for all assays were: baseline peak INa>800 pA, Rseal>200 MΩ, and, where appropriate, persistent INa>100 pA. Compensation was 50% and leak subtraction was not used. Currents were filtered at 5 kHz and digitized at 32.5 kHz. Raccess and Rseal were monitored throughout the recording and cells with Raccess>10 MΩ or Rseal<200 MΩ were terminated automatically by script.
Late (persistent) current Block: The inhibition of ATX-II activated late current was measured using a 200 ms voltage step to 0 mV. Protocols used low stimulation rates (about 0.1 Hz) and negative potentials (−120 mV) to keep channels in closed (resting) states.

male CD-1 mice = experiment: Maximal electroshock induced seizure (MES) test; format: in vivo, mouse
Description: Food and water were available ad libitum.
VPA was prepared in saline (Vehicle 1). All solutions were protected from light. All compounds and vehicles were dosed at 10 ml/kg.
The MES test was carried out over two days with 6 of 12 mice from each treatment group being tested on each day. Mice were brought to the test room at least one hour before the start of the experiment.
A Grass S88x (Grass Technologies of Astro-Med, Inc., West Warwick, RI) Stimulus Isolation Unit (A385, WPI Inc., USA) was set to deliver a 50 mA square-wave stimulus, with a 0.8 second duration, a pulse width of 10 msec, and a frequency of 50 Hz. A pair of custom stainless steel electrodes were soaked in 0.2% Agar, and then the subject received bilateral transauricular stimulation through ear-clip electrodes. During the stimulation, mice were manually restrained. They were then released into the observation cage for convulsion observation for 60 seconds immediately after stimulation. Each mouse was observed continuously by individuals blinded to treatment conditions and results were recorded.
Anti-seizure assessment endpoints were: (1) latency of hindlimb tonic flexion; (2) latency of hindlimb tonic extension; (3) total #hindlimb tonic flexions; (4) total #hindlimb tonic extensions; (5) latency to death; and (6) mortality rate
From these fitted curves, ED50 and EC50 values were calculated.

human NaV1.6 [2] = target: T1, human NaV1.6; experiment: Peak INa voltage-dependent block (VDB), PatchXpress patch clamp; format: cell-based
Description: as §1, §2, §3, §4
Voltage Dependent Block (VDB): VDB protocols used a depolarized voltage to keep channels in half-inactivated (resting) states. This allowed equilibrium binding and accurate determination of isoform selectivity (in the absence of biological features).

T1 sequence (Q9UQD0 whole entry): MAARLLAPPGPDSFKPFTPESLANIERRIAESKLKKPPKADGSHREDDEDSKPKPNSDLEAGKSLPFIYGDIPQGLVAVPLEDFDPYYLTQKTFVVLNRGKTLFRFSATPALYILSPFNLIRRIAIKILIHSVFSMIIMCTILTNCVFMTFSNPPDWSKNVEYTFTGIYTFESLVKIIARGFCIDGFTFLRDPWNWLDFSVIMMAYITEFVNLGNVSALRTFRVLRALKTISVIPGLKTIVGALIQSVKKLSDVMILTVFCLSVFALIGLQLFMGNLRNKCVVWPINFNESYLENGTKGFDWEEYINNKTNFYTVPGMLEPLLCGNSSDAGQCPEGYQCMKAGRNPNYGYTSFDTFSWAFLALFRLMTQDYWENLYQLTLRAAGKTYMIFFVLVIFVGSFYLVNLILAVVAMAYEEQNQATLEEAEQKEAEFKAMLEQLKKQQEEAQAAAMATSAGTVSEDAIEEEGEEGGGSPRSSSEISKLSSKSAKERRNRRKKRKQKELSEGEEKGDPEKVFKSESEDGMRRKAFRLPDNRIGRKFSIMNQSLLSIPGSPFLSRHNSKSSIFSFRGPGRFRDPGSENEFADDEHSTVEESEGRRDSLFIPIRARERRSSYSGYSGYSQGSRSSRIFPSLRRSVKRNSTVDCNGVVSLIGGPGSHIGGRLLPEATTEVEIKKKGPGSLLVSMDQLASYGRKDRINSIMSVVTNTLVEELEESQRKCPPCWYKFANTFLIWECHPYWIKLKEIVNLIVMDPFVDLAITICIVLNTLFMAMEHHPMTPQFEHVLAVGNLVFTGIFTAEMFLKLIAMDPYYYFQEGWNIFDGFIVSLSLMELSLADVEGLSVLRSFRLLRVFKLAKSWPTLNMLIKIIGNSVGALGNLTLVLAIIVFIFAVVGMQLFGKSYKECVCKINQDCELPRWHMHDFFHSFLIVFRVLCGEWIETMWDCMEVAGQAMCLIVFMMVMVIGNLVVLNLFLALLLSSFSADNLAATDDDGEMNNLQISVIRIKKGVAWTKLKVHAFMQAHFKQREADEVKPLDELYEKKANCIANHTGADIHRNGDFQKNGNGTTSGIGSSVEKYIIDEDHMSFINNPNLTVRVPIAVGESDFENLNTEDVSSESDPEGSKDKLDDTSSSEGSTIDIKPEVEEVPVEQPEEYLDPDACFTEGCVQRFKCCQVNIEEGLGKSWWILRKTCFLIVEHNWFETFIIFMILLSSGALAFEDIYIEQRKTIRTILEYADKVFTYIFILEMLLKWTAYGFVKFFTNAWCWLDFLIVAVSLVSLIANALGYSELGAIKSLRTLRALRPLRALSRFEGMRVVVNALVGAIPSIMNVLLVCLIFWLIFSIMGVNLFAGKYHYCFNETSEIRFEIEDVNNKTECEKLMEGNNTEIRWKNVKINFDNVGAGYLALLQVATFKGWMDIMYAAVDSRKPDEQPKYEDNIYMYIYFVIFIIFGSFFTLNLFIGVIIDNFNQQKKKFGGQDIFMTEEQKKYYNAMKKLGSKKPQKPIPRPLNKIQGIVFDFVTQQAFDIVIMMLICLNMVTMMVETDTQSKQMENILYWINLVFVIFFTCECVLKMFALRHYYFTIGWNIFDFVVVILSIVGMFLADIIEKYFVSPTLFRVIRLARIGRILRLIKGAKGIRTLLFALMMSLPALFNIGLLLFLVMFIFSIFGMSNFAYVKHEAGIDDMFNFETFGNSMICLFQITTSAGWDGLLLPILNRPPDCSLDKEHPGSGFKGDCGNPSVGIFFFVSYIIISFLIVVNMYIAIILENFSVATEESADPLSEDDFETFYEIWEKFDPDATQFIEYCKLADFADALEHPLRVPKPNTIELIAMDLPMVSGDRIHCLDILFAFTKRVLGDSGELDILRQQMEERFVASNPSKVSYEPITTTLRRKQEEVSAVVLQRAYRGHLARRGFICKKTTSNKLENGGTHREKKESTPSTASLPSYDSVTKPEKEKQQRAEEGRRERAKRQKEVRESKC

For CCOC(F)(F)c1nnc2cnc(-c3cnc(OCC(F)(F)F)c(F)c3)cn12 [Compound 1, 3-(ethoxydifluoromethyl)-6-(5-fluoro-6-(2,2,2-trifluoroethoxy)pyridin-3-yl)-[1,2,4]triazolo[4,3-a]pyrazine], the IC50 (human NaV1.6 [1]; hNaV1.6, ATX-II-evoked, holding −120 mV) was 141 nM, the “preference for persistent INa relative to peak INa” value (human NaV1.6 [1]; hNaV1.6, all assay conditions) was “preference for persistent INa” and the “latency to seizures following bilateral transauricular stimulation” value (male CD-1 mice; 3 mg/kg p.o., 30 min before test) was “significantly increased”. For the same molecule, the “mice that did not exhibit tonic seizures” value (male CD-1 mice; Compound 1 10 mg/kg) was 11 of 12, the “protection (increase in latency) against MES-induced tonic hindlimb seizures, dose-response” value (male CD-1 mice; Compound 1 0.3-10 mg/kg po) was “dose-dependent increases in latency; also recorded: dose-dependent protection” and the ED50 (male CD-1 mice; mouse MES, read-out: Efficacy (MES) ED50, increasing latency to tonic extension seizures) was 2 mg/kg. The “Ratio to Pers. INa (Peak INa VDB / persistent INa)” value (human NaV1.6 [2]; hNaV1.6) was 2.2 and the IC50 (human NaV1.6 [2]; hNaV1.6, half-inactivated (V1/2)) was 317 nM.
